From patent US6703371B1, “Preparations for reducing oxygen consumption during physical efforts” (priority 1999, dated 2004)
Where “and” joins values, the source holds several entries; their conditions need not be identical. Equal entries are not always repeated. Where two headings read alike, the source gives them in different places.

Columns and labels:
test subject [1] = experiment: Bicycle ergometer test at 100 W with gelatin products (Example 7); format: in vivo, human; conditions: for Average heart rate after 1st dos.: 100 W; for Average heart rate before: 10-minute control test at 100 W before the 1st dosage
Method: In tests analogous to Example 1, the tests indicated in Table 7 were carried out with gelatin products which were produced in analogy to Examples 3-5. After a warm-up period of 5 minutes in each case firstly the heartbeats were recorded at a mechanical power output of 100 W during a 10-minute control test, then the 1st dosage was administered and immediately thereafter the heart rate was measured in a 10-minute test period with a power output of 100 W. In the case of a 2nd dosage, this further administration and a second 10-minute test period take place with a power output of 100 W immediately following the first test period.

[2] = Oxygen-sparing action during physical work, general findings in the description; format: in vivo; conditions: result in words; for Oxygen demand after administration: even occasionally increased
test subject [3] = experiment: Bicycle ergometer test at 100 W: active ingredient, sucrose, further active ingredient, amino acid/vitamin product (Example 1c); format: in vivo, human; conditions: for Change in oxygen consumption after 2nd dos.: 2nd dosage 2.5 g of sucrose; for Change in oxygen consumption after 2nd dos. / Change in oxygen consumption after 4th dos. / Change in oxygen consumption after 3rd dos.: relative to preceding dosage; for Change in oxygen consumption after 4th dos.: 4th dosage Na glutamate/folic acid/cyanocobalamin/gelatin; for Average heart rate after 1st dos.: 10-minute test at 100 W
test subject [4] = format: in vivo, human; conditions: for change in vivo at 1 mg / change in vivo at 0.2 mg: Homo sapiens, 10 min
test subject [5] = experiment: Bicycle ergometer test at 100 W: active ingredient, sucrose, further active ingredient, amino acid/vitamin product (Example 1c); format: in vivo, human; conditions: for Average heart rate after 4th dos.: 4th dosage 100 mg of Na glutamate, 0.3 mg of folic acid, 5 μg of cyanocobalamin in 10 mg of gelatin; for Average heart rate after 2nd dos.: then 2nd dosage 2.5 g of sucrose
Method: (§1) 13 to Mar. 6, 1999, with a subject in good physical condition under standard conditions. The subject was required each morning in the fasting state to perform successively (without interruption) at mechanical power output of 100 W, 125 W and 150 W, each lasting 10 minutes (total test duration 30 minutes each time). […] The heat production induced by mechanical exertion was calculated from the changes in the heart rate. An alternative possibility is also to determine it on the basis of the increase in humidity caused by the perspiration (the tests are carried out in a closed room) or reduction in weight (1 g of water=2.26 kJ). […] The values indicated in table la for the “average heart rate” are in each case averages over the 30-minute duration of the test; relative values for the oxygen consumption were established on the basis of the heart rates in a known manner, and the relative values indicated in Table 1a are based on the oxygen consumption on the first day (=100%); the values listed in the column “heat production” in Table 1a give the percentage deviation of the heat production, established on the basis of the perspiration, from the average from all the tests.
(§2) It is known that the oxygen uptake can be determined by measuring the heart rate as a function of the mechanical exertion. This ergometric method is based on establishing the oxygen transport volume through the action of the heart. Since the stroke volume is essentially constant irrespective of the intensity of the mechanical work, and the increased oxygen demand caused by the increase in work results in an increase in the heart rate, the quantity of the transported oxygen can be established by determining the additional heartbeats caused by the work. A 3-stage ergometer as recommended by the World Health Organization (WHO) is used in physiology research institutes and fitness clubs around the world.

test subject [6] = conditions: 125 W
Excerpt: Unless otherwise indicated, the tests each took place in the morning in the fasting state, with mechanical power outputs of 100 W, 125 W or 150 W being required in each case from the test subject during one or more 10-minute test periods. A bicycle ergometer from Ergo Fit (Kaiserslautern, Germany) was used for this, and the required work was controlled at 60 pedal revolutions per minute in each case (controlled by a metronome from Seiko, Japan) by means of an eddy current brake. A heart rate computer from Polar Electro (Kempele, Finland) was used for continuous measurement of the heart rate; the atmospheric pressure was measured by an electronic barograph from Altitude Instrumentation (Paris, France) with a resolution of 0.1 mbar; the temperature and relative humidity were measured by an electronic thermohygrometer. The “average heart rates” indicated in the tables are in each case averages of the particular test period. The test subject received a high-carbohydrate diet mainly composed of pasta, and meat of young animals (veal, chicken, fish) in order to ensure an adequate supply of protein, throughout the series of tests. Only 1 test was carried out on each day.
Only 1 test was carried out on each day.

test subject [7] = experiment: Bicycle ergometer test at 100 W: antagonism between inactive (1st dosage) and active (2nd dosage) substances (Example 1b); format: in vivo, human; conditions: for Change in the oxygen consumption after 2nd dosage: relative to after 1st dosage
Method: as §1, §2

[8] = 1st dosage 1 mg as dilute aqueous solution
[9] = 3rd dosage further 1 mg of active ingredient
[10] = read-out: Change in the oxygen demand
[11] = 3rd dosage further 1 mg of active ingredient after sucrose
[12] = after 1 mg of active ingredient
[13] = read-out: Heat production (deviation from the average of all the tests)
[14] = 1st dosage 0.2 mg as dilute aqueous solution
[15] = 3rd dosage further 0.2 mg of active ingredient
[16] = 3rd dosage further 0.2 mg of active ingredient after sucrose
[17] = after 0.2 mg of active ingredient

Row | SMILES | Average heart rate before (test subject [1]) | Oxygen demand after administration [2] | Suitability for reducing the oxygen consumption during physical work [2] | Change in oxygen consumption after 2nd dos. (test subject [3]; 1 mg series) | Change in oxygen consumption after 4th dos. (test subject [3]; 1 mg series) [%] | Average heart rate after 1st dos. (test subject [3]; [8]) [per minute] | Change in oxygen consumption after 3rd dos. (test subject [3]; [9]) | change in vivo at 1 mg (test subject [4]; [10]) [%] | Average heart rate after 4th dos. (test subject [5]; 1 mg series) [per minute] | Average heart rate after 3rd dos. (test subject [5]; [11]) [per minute] | Average heart rate after 2nd dos. (test subject [5]; [12]) [per minute] | Change in oxygen consumption after 2nd dos. (test subject [3]; 0.2 mg series) | Change in oxygen consumption after 4th dos. (test subject [3]; 0.2 mg series) [%] | Average heart rate after 1st dos. (test subject [3]; [14]) [per minute] | Change in oxygen consumption after 3rd dos. (test subject [3]; [15]) | change in vivo at 0.2 mg (test subject [4]; [10]) [%] | change in vivo at 0.2 mg (test subject [4]; [13]) [%] | Average heart rate after 4th dos. (test subject [5]; 0.2 mg series) [per minute] | Average heart rate after 3rd dos. (test subject [5]; [16]) [per minute] | Average heart rate after 2nd dos. (test subject [5]; [17]) [per minute] | further results
1 | CC(CN(C)C)CN1c2ccccc2CCc2ccccc21 (centres unmarked) [trimipramine] | 79.8 per minute and 81.7 per minute | not reduced | – | – | – | – | – | – | – | – | – | – | – | – | – | – | – | – | – | – | Average heart rate after 1st dos. (test subject [1]; 1st dosage 12.5 mg): 101.7 per minute and 97.0 per minute
2 | Cc1ncc2n1-c1ccc(Cl)cc1C(c1ccccc1F)=NC2 [midazolam] | – | – | suitable | +70% | −58 | 75.9 | +2% | -42 | 83.2 | 112.1 | 110.9 | – | – | – | – | – | – | – | – | – | Effect on the heart rate, the oxygen consumption and the heat production (test subject [4]; low dosage, 125 W, result in words): marked reduction in the heart rate, the oxygen consumption and the heat production
3 | CN1C(=O)CN=C(c2ccccc2)c2cc(Cl)ccc21 [diazepam] | – | – | suitable | +74% | −54 | 74.8 | +2% | -44 | 86.3 | 113.1 | 111.9 | – | – | – | – | – | – | – | – | – | change in vivo at 1 mg (test subject [4]; [13]): -50%; Average heart rate (test subject [6]; 1 mg, atmospheric pressure 1010.0 mbar): 80 per minute; Average heart rate (test subject [6]; 1 mg, atmospheric pressure 1010.8 mbar): 71 per minute; Average heart rate (test subject [6]; 1 mg, atmospheric pressure 1015.2 mbar): 77 per minute; Average heart rate (test subject [6]; 1 mg, atmospheric pressure 1015.9 mbar): 72 per minute; Average heart rate (test subject [6]; 1 mg, atmospheric pressure 1017.4 mbar): 74 per minute; Average heart rate (test subject [6]; 1 mg, atmospheric pressure 1017.5 mbar): 72 per minute; Average heart rate (test subject [6]; 1 mg, atmospheric pressure 1021.7 mbar): 76 per minute; Average heart rate (test subject [6]; 1 mg, atmospheric pressure 1026.3 mbar): 75 per minute; Average heart rate (test subject [6]; 2 mg, atmospheric pressure 1005.9 mbar): 76 per minute; Average heart rate (test subject [6]; 2 mg, atmospheric pressure 1007.8 mbar): 79 per minute; Effect of low atmospheric pressure on heart rate and oxygen consumption (test subject [6]; result in words): can be compensated; Change in the oxygen consumption after 2nd dosage (test subject [7]; 2nd dosage 1 mg, after 3 mg of bromazepam, 100 W): −65%; Change in the oxygen consumption after 2nd dosage (test subject [7]; 2nd dosage 1 mg, after 7 mg of oxazepam, 100 W): −72%; Change in the oxygen consumption after 2nd dosage (test subject [7]; 2nd dosage 1 mg, after 10 mg of nitrazepam, 100 W): −59%; Average heart rate after 2nd dosage (test subject [7]; 2nd dosage 1 mg, after 1st dosage of 3 mg of bromazepam, 100 W): 97.0 per minute; Average heart rate after 2nd dosage (test subject [7]; 2nd dosage 1 mg, after 1st dosage of 7 mg of oxazepam, 100 W): 89.4 per minute; Average heart rate after 2nd dosage (test subject [7]; 2nd dosage 1 mg, after 1st dosage of 10 mg of nitrazepam, 100 W): 102.1 per minute
4 | COc1ccc2c(c1)[C@]13CCCC[C@@H]1[C@H](C2)N(C)CC3 [dextromethorphan] | – | – | suitable | – | – | – | – | – | – | – | – | +69% | −46 | 75.8 | +1% | -57 | -49 | 87.8 | 111 | 110.4 | Change in the oxygen consumption after 2nd dosage (test subject [7]; 2nd dosage 0.2 mg, after 6 mg of amitriptyline + 2.5 mg of chlordiazepoxide, 100 W): −81%; Average heart rate after 2nd dosage (test subject [7]; 2nd dosage 0.2 mg, after 1st dosage of 6 mg of amitriptyline + 2.5 mg of chlordiazepoxide, 100 W): 84.8 per minute
5 | COc1ccc2c3c1O[C@H]1[C@@H](O)C=C[C@H]4[C@@H](C2)N(C)CC[C@@]341 [codeine] | – | – | suitable | – | – | – | – | – | – | – | – | +69% | −50 | 73.0 | +2% | -29 | -27 | 82.9 | 108 | 107.3 | Change in the oxygen consumption after 2nd dosage (test subject [7]; 2nd dosage 0.5 mg, after 0.5 mg of flupentixol, 100 W): −57%; Change in the oxygen consumption after 2nd dosage (test subject [7]; 2nd dosage 0.5 mg, after 1 mg of lorazepam, 100 W): −59%; Change in the oxygen consumption after 2nd dosage (test subject [7]; 2nd dosage 0.5 mg, after 6 mg of amitriptyline + 2.5 mg of chlordiazepoxide, 100 W): −52%; Change in the oxygen consumption after 2nd dosage (test subject [7]; 2nd dosage 0.5 mg, after 7 mg of oxazepam, 100 W): −67%; Change in the oxygen consumption after 2nd dosage (test subject [7]; 2nd dosage 0.5 mg, after 10 mg of chlorprotixen, 100 W): −69%; Average heart rate after 2nd dosage (test subject [7]; 2nd dosage 0.5 mg, after 1st dosage of 0.5 mg of flupentixol, 100 W): 89.7 per minute; Average heart rate after 2nd dosage (test subject [7]; 2nd dosage 0.5 mg, after 1st dosage of 1 mg of lorazepam, 100 W): 91.8 per minute; Average heart rate after 2nd dosage (test subject [7]; 2nd dosage 0.5 mg, after 1st dosage of 6 mg of amitriptyline + 2.5 mg of chlordiazepoxide, 100 W): 86.5 per minute; Average heart rate after 2nd dosage (test subject [7]; 2nd dosage 0.5 mg, after 1st dosage of 7 mg of oxazepam, 100 W): 104.1 per minute; Average heart rate after 2nd dosage (test subject [7]; 2nd dosage 0.5 mg, after 1st dosage of 10 mg of chlorprotixen, 100 W): 90.0 per minute
6 | CN(C)CCCN1c2ccccc2CCc2ccccc21 [imipramine] | 87.7 per minute | not reduced | – | – | – | – | – | – | – | – | – | – | – | – | – | – | – | – | – | – | Average heart rate after 1st dos. (test subject [1]; 1st dosage 10 mg): 100.2 per minute; Average heart rate after 1st dosage (test subject [7]; 1st dosage 10 mg in 20 ml of water, 10-minute test at 100 W): 109.5 per minute; change in vivo at 10 mg (test subject [7]; Homo sapiens, 1st dosage 10 mg, 100 W, read-out: Change in the oxygen consumption after 1st dosage): 23%
